# Patent US20190256509A1, “HISTONE DEMETHYLASE INHIBITORS” (CHRYSALIS, INC., priority 2016, published 2019)
# Biological target: T1, KDM5B enzyme (Homo sapiens, UniProt Q9UGL1)
# T1 construct: Reaction Biology Corp (named for the assay, not expressly for the enzyme)
# Test: KDM5B HTRF (TR-FRET) demethylase inhibition assay
# Assay type: biochemical
# Conditions: 1.2 nM KDM5B, 30 nM Biotin-H3K4Me3 1-21 substrate, 10 point dose-response
# Experimental: Ten point dose-response curves for the compounds of Examples 1-135 were determined using a homogeneous time resolved fluorescence (HTRF) assay (Reaction Biology Corp, Malvern, Pa.). This assay combines fluorescence resonance energy transfer (FRET) with time resolve (TR) measurements (TR-FRET). The KDM5B α-ketoglutarate-dependent demethylase activity is calculated by measuring demethylation of a biotin labeled histone tri-methylated H3K4 substrate using an europium-cryptate (Eu)-labeled antibody donor specific for dimethylated histone H3K4 and a Streptavidin-XL665 acceptor that binds to the biotin group of substrate, and detecting FRET by exciting the reaction mixture at 320 nm and reading dual emissions at 615 nm and 665 nm.
# Briefly, compounds disclosed herein were solubilized in DMSO and a series of 10, three-fold serial dilutions were made for each compound in 100% DMSO. The initial starting concentration for the serial dilutions of each compound was 10 μM or 100 μM. Control samples lacking compound, KDM5B enzyme or various reaction components also were prepared and processed in parallel with compound test samples.
# An aliquot of each serial dilution of test compound was added to a 384 well plate (Corning Cat #3572) containing 1.2 nM KDM5B enzyme suspended in 50 mM Hepes, pH7.5, 50 mM NaCl, 0.01% Tween 20, 0.1% BSA, and 1% DMSO (final concentrations) in a 10 microliter reaction volume using a LABCYTE ECHO liquid handler. The samples were mixed, subjected to centrifugation and the plate was pre-incubated at room temperature for 15 minutes (min), to which 30 nM Biotin-H3K4Me3 1-21 substrate (Anaspec, Freemont Calif., Cat #64192), 20 μM Fe(II) and 20 μM α-ketoglutarate co-factors, and 100 μM Ascorbate were added to initiate the enzymatic reaction. The reaction mixture was incubated at room temperature for 45 minutes. A 10 μl aliquot of a detection mixture of Eu-labeled anti-histone H3K4Me2 antibody (CisBIO, Bedford Mass., Cat #610AXLB) and Streptavidin-XL665 (CisBIO, Bedford Mass., Cat #610 SAXLB) in 200 mM potassium fluoride and 10 mM EDTA was added and kinetic measurements were read at 5 minute intervals for a period of 30 minutes using an Envision Multiplate Reader (PerkinElmer Model 2102; excitation at 320 nm and emission reads at 615 nm and 665 nm). The IC50 value for each compound was determined from the 665/615 ratio obtained for each 10 point dose-response curve using GraphPad Prism 4 software with a sigmodial dose response.
# T1 sequence (Q9UGL1 whole entry): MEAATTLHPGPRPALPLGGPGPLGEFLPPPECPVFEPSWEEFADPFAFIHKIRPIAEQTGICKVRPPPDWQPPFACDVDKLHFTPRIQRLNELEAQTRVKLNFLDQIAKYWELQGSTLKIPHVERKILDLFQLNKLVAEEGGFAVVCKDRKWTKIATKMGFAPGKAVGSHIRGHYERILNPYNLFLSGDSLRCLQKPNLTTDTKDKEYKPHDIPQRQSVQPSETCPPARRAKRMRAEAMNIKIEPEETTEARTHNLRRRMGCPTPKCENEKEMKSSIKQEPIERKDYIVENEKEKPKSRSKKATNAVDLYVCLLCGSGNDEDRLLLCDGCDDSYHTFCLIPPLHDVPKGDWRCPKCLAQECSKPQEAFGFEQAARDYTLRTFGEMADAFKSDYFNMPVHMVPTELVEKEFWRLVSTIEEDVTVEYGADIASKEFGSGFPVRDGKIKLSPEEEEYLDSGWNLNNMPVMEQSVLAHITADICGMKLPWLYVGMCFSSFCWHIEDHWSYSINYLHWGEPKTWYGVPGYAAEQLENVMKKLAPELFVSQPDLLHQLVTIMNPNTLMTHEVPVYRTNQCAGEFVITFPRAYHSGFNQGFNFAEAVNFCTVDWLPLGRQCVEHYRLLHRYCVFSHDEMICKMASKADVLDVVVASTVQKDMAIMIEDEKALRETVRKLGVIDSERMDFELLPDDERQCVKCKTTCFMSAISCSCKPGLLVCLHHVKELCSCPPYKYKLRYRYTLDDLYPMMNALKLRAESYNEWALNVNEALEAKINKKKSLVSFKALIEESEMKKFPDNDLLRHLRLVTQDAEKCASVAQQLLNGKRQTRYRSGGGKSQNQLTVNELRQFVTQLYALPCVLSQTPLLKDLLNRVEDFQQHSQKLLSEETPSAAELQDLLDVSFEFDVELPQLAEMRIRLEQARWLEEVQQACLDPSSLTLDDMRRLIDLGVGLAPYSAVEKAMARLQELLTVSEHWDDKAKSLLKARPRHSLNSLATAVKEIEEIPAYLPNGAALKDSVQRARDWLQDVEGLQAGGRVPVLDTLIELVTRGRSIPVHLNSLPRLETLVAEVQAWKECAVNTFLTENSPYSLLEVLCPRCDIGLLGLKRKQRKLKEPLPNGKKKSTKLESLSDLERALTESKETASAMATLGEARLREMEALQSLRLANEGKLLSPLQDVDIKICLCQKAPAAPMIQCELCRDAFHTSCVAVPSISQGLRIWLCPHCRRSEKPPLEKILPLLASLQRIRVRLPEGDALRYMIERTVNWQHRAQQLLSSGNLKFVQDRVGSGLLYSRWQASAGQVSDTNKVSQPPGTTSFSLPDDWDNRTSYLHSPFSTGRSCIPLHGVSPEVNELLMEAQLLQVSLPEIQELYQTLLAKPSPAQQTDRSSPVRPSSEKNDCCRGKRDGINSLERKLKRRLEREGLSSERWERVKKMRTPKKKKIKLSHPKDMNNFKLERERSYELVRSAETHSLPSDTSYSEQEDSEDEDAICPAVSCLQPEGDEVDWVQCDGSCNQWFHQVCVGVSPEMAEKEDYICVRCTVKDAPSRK
row,SMILES,IC50 [µM]
1,O=C(O)c1c(NCC2CCCc3cc(Oc4ccccc4)ccc32)ccc2nccn12 (centres unmarked) [Example 115],> 1
2,O=C(O)c1cc(CCCN2CCC(c3cc(Cl)cc(Cl)c3)CC2)cc2nccn12 [Example 135],≤ 0.5
3,COc1ccc(Cl)cc1CNc1ccc2nc(C)cn2c1C(=O)O [Example 114],> 1
4,O=C(O)c1c(NCc2ccc3c(c2)CCO3)ccc2nccn12 [Example 98],> 1
5,Cn1c(=O)n(C)c2cc(CNc3ccc4nccn4c3C(=O)O)ccc21 [Example 76],0.5 to 1
6,O=C(O)c1cc(Oc2ccc3ccncc3c2)cc2nccn12 [Example 109],> 1
7,COc1ccccc1Oc1cc(C(=O)O)n2ccnc2c1 [Example 108],> 1
8,COc1cc(Cl)ccc1CNc1ccc2nccn2c1C#N [Example 110],> 1
9,COc1ccc(F)c(CNc2ccc3nccn3c2C(=O)O)c1F [Example 11],> 1
10,O=C(O)c1c(NCc2ccc(F)c(C(F)(F)F)c2)ccc2nccn12 [Example 62],0.5 to 1
11,O=C(O)c1c(NCc2cccc(-c3ccccc3)c2)ccc2nccn12 [Example 52],> 1
12,O=C(O)c1c(NCc2cc(C(F)(F)F)cc(C(F)(F)F)c2)ccc2nccn12 [Example 6],> 1
13,O=C(O)c1c(NCc2cc(Cl)c(F)cc2F)ccc2nccn12 [Example 99],> 1
14,COc1cc(Cl)ccc1CNc1ccc2nc(C)cn2c1C(=O)O [Example 119],> 1
15,CC(O)c1ccn2c(C(=O)O)cnc2c1 (centres unmarked) [Example 103],> 1
16,O=C(O)c1c(NCc2cc(F)c(F)c(F)c2)ccc2nccn12 [Example 87],> 1
17,O=C(O)c1c(NCc2ccc(-c3ccccc3)cc2)ccc2nccn12 [Example 7],> 1
18,CCN1CCN(c2ccc(CNc3ccc4nccn4c3C(=O)O)c3c2CCCC3)CC1 [Example 124],> 1
19,CCCCc1ccc(CNc2ccc3nccn3c2C(=O)O)cc1 [Example 65],> 1
20,O=C(O)c1c(NCc2ccc(C(F)(F)F)cc2F)ccc2nccn12 [Example 41],0.5 to 1
21,O=C(O)c1c(NCc2ccc(OC(F)F)cc2)ccc2nccn12 [Example 22],> 1
22,COc1cc(Cl)ccc1CNc1cc(C(=O)O)n2ccnc2c1 [Example 122],> 1
23,O=C(O)c1c(NCc2ccc(-n3ccnc3)cc2)ccc2nccn12 [Example 78],≤ 0.5
24,CC(O)c1cc(C(=O)O)n2ccnc2c1 (centres unmarked) [Example 106],> 1
25,O=C(O)c1cnc2cc(Oc3ccc4ccncc4c3)ccn12 [Example 105],> 1
26,CC(C)Oc1ccc(CNc2ccc3nccn3c2C(=O)O)cc1 [Example 28],> 1
27,O=C(O)c1c(NCc2cc(Cl)cc(Cl)c2)ccc2nccn12 [Example 18],> 1
28,O=C(O)c1c(NCc2ccc(F)c(Br)c2)ccc2nccn12 [Example 90],> 1
29,Cc1ccc(Cl)c(CNc2ccc3nccn3c2C(=O)O)c1F [Example 70],> 1
30,O=C(O)c1c(NCc2c(F)cc(F)cc2F)ccc2nccn12 [Example 71],0.5 to 1

# Continued, values first:
row,IC50 [µM],SMILES
1,> 1,O=C(O)c1c(NCc2ccccc2N2CCOCC2)ccc2nccn12 [Example 86]
2,0.5 to 1,O=C(O)c1c(NCc2ccccc2Cl)ccc2nccn12 [Example 15]
3,0.5 to 1,O=C(O)c1c(NCc2cc(Cl)ccc2Cl)ccc2nccn12 [Example 34]
4,0.5 to 1,Cc1ccc(Cl)cc1CNc1ccc2nccn2c1C(=O)O [Example 26]
5,> 1,O=C(O)c1c(NCc2cccc(Cl)c2Cl)ccc2nccn12 [Example 9]
6,> 1,COc1ccccc1CNc1ccc2nccn2c1C(=O)O [Example 17]
7,> 1,O=C(O)c1c(NCc2cccc(F)c2F)ccc2nccn12 [Example 79]
8,0.5 to 1,O=C(O)c1c(NCc2ccccc2OC(F)(F)F)ccc2nccn12 [Example 37]
9,> 1,Cc1cccc(Cl)c1CNc1ccc2nccn2c1C(=O)O [Example 14]
10,0.5 to 1,O=C(O)c1c(NCc2ccc(Cl)cc2Cl)ccc2nccn12 [Example 72]
11,≤ 0.5,N#Cc1ccc(CNc2ccc3nccn3c2C(=O)O)cc1 [Example 59]
12,0.5 to 1,O=C(O)c1c(NCc2ccc(F)cc2F)ccc2nccn12 [Example 81]
13,> 1,O=C(O)c1c(NCc2cccc3c2CNCC3)ccc2nccn12 [Example 121]
14,> 1,CC(C)(C)c1ccc(CNc2ccc3nccn3c2C(=O)O)cc1 [Example 25]
15,0.5 to 1,O=C(O)c1c(NCc2ccccc2C(F)(F)F)ccc2nccn12 [Example 2]
16,0.5 to 1,Cc1cc(Cl)ccc1CNc1ccc2nccn2c1C(=O)O [Example 57]
17,≤ 0.5,CS(=O)(=O)c1ccccc1CNc1ccc2nccn2c1C(=O)O [Example 84]
18,≤ 0.5,O=C(O)c1c(NCc2cccc(Br)c2)ccc2nccn12 [Example 4]
19,0.5 to 1,COc1c(F)cccc1CNc1ccc2nccn2c1C(=O)O [Example 92]
20,0.5 to 1,O=C(O)c1c(NCc2ccccc2OC(F)F)ccc2nccn12 [Example 12]
